From US4818759A, “Treatment of disease” (priority 1987, dated 1989)
Like-named read-outs stand apart in the source and are kept apart here.

Test system: polyarthritis
Experiment: Rat adjuvant arthritis (Freund's adjuvant polyarthritis), global arthritic joint score
Format: in vivo, rats
Conditions: po, 384 h, read-out: ED50 (dose that produced a 50% reduction of the average global arthritic joint score relative to a control group)

Row | SMILES | ED50 | ED50 (rats, in ground meal diet for 14 days from day of sensitization with Freund's adjuvant, evaluated on 16th day after sensitization)
1 | CC(=O)Oc1ccccc1C(=O)O [Aspirin] | 102 mg/kg | 
2 | COc1ccc(OC)c(Cc2cnc3nc(N)nc(N)c3c2C)c1 [2,4-diamino-5-methyl-6-(2,5-dimethoxybenzyl)pyrido[2,3-d]pyrimidine isethionate] |  | 19 mg/kg
